Measurements from patent US12371748B2, “Genetic markers for predicting responsiveness to therapy with HDL-raising or HDL mimicking agent” (Hoffmann-La Roche Inc., priority 2014, dated 2025).

System: patients with evidence of coronary artery disease
Experiment: dal-PLAQUE-2: change in carotid intima-media thickness (B-mode ultrasound) by ADCY9 genotype
Assay type: in vivo, human
From the text: The dal-PLAQUE-2 study (Tardif J C et al, Circulation Cardiovascular imaging 2011; 4:319-33) was a phase 3b multicenter, double-blind, randomized, placebo-controlled, parallel group trial designed to evaluate the effect of dalcetrapib on atherosclerotic disease progression in patients with evidence of coronary artery disease and carotid intima media thickness of at least 0.65 mm in the far wall of the common carotid arteries, as assessed by B-mode ultrasonography. A total of 931 patients were randomized to receive dalcetrapib 600 mg daily or matching placebo with intended treatment duration of 24 months. However, the trial was terminated prematurely concurrent with the termination of dal OUTCOMES (the latter due to futility). Patients continued study medication until they returned for follow-up carotid imaging at 12 months. Carotid B-mode ultrasound recordings at baseline, month 6, and month 12 were analyzed centrally at the core laboratory of the Montreal Heart Institute. Intima-media thickness (IMT) was analyzed on the far wall of the common carotid arteries. A segment of 10 mm in length of the common carotid artery was analyzed on serial examinations using an automated edge detection software (Carotid Analyzer, Medical Imaging Applications, Coralville, Iowa). Among the 411 participants in the dal-PLAQUE-2 trial who consented to the genetic study, 386 had imaging measures at baseline, 6 months and 12 months (194 and 192 in the dalcetrapib and placebo arms respectively). DNA was extracted from whole blood. The research protocols were approved by the relevant institutional review boards or ethics committees and all human participants gave written informed consent.
All acquired carotid ultrasound recordings were analyzed at the core laboratory of the Montreal Heart Institute by experienced technicians supervised by a physician. Images were required to meet quality and inclusion and exclusion criteria for eligibility prior to random assignment to study treatment. The methods for carotid intima-media thickness analysis included side-by-side viewing of baseline and follow-up studies.
Carotid arterial wall segments were assessed in a longitudinal view, perpendicular to the ultrasound beam, with a horizontal display of the arterial image in order to view the interfaces between blood and vascular structures on the longest possible segment. The localization of the end of the common carotid artery was used as the landmark in repositioning and analyzing comparative length of segments in baseline and follow-up studies. Intima-media thickness was analyzed on the far wall of the right and left common carotid arteries, to reduce variability of measurements. The average of the mean intima-media thickness values of the right and left common carotid arteries was used. A matched segment of 10 mm in length of the common carotid artery was analyzed on serial examinations (baseline, 6 months and 12 months), starting 5 mm proximal to the carotid bifurcation. The edge detection software Carotid Analyzer (Medical Imaging Applications LLC, Coralville, Iowa) was used to analyze intima-media thickness using the automated option. Two sets of carotid artery borders were identified: First, the media-adventitia borders were determined and verified by the reader. When required, their locations were semi-automatically modified to the correct location. When these borders were approved, the lumen-intima boundaries were automatically detected using the media-adventitia borders for guidance. Frames from looped sequences of intima-media thickness were selected for reading, and poor quality outlier frames were removed from the analysis when required.
For the dal-Plaque-2 population, mixed regression models for repeated measures analysis were tested in SAS software. The dal-Plaque-2 tested endpoint was the mean of IMT measures of common carotid arteries at the 6-month and the 12-month visits, using the baseline measure as covariate. […]

CCC(CC)CC1(C(=O)Nc2ccccc2SC(=O)C(C)C)CCCCC1 [dalcetrapib, thioisobutyric acid S-(2-{[1-(2-ethyl-butyl)-cyclohexanecarbonyl]-amino}-phenyl) ester]
Change from baseline in carotid intima-media thickness, Mean (rs1967309, heterozygotes, M12): −0.001 mm
Change from baseline in carotid intima-media thickness, Mean (rs1967309, homozygotes for major allele, M06): 0.006 mm
Change from baseline in carotid intima-media thickness, Mean (rs1967309, homozygotes for major allele, M12): 0.005 mm
Change from baseline in carotid intima-media thickness, Mean (rs1967309, homozygotes for minor allele, M12): −0.021 mm
change in IMT after 12 months of treatment (rs1967309 AA homozygotes): −0.021±0.083 mm
change in IMT after 12 months of treatment (rs1967309 GG homozygotes): +0.005±0.042 mm
change in IMT after 12 months of treatment (rs1967309 heterozygotes): −0.001±0.048 mm
Change from baseline in carotid intima-media thickness, Mean (rs2238448, heterozygotes, M06): −0.003 mm
Change from baseline in carotid intima-media thickness, Mean (rs2238448, heterozygotes, M12): 0.000 mm
Change from baseline in carotid intima-media thickness, Mean (rs2238448, homozygotes for major allele, M06): 0.011 mm
Change from baseline in carotid intima-media thickness, Mean (rs2238448, homozygotes for major allele, M12): 0.009 mm
Change from baseline in carotid intima-media thickness, Mean (rs2238448, homozygotes for minor allele, M06): −0.010 mm
Change from baseline in carotid intima-media thickness, Mean (rs2238448, homozygotes for minor allele, M12): −0.027 mm
change in IMT after 12 months of treatment (rs2238448 CC (common allele homozygotes)): +0.009±0.038 mm
change in IMT after 12 months of treatment (rs2238448 TT (minor allele homozygotes)): −0.027±0.079 mm
change in IMT after 12 months of treatment (rs2238448 heterozygotes): 0.000±0.048 mm
Change from baseline in carotid intima-media thickness, Mean (rs2239310, heterozygotes, M06): −0.004 mm
Change from baseline in carotid intima-media thickness, Mean (rs2239310, heterozygotes, M12): −0.003 mm
Change from baseline in carotid intima-media thickness, Mean (rs2239310, homozygotes for major allele, M06): 0.004 mm
Change from baseline in carotid intima-media thickness, Mean (rs2239310, homozygotes for major allele, M12): 0.001 mm
Change from baseline in carotid intima-media thickness, Mean (rs2239310, homozygotes for minor allele, M06): −0.001 mm
Change from baseline in carotid intima-media thickness, Mean (rs2239310, homozygotes for minor allele, M12): −0.002 mm
Change from baseline in carotid intima-media thickness, Mean (rs2283497, heterozygotes, M06): −0.001 mm
Change from baseline in carotid intima-media thickness, Mean (rs2283497, heterozygotes, M12): 0.005 mm
Change from baseline in carotid intima-media thickness, Mean (rs2283497, homozygotes for minor allele, M06): −0.005 mm
Change from baseline in carotid intima-media thickness, Mean (rs2283497, homozygotes for minor allele, M12): −0.006 mm
Change from baseline in carotid intima-media thickness, Mean (rs2531967, heterozygotes, M06): −0.008 mm
Change from baseline in carotid intima-media thickness, Mean (rs2531967, heterozygotes, M12): −0.006 mm
Change from baseline in carotid intima-media thickness, Mean (rs2531967, homozygotes for minor allele, M06): −0.007 mm
Change from baseline in carotid intima-media thickness, Mean (rs2531967, homozygotes for minor allele, M12): −0.031 mm
Change from baseline in carotid intima-media thickness, Mean (rs2531971, heterozygotes, M06): −0.002 mm
Change from baseline in carotid intima-media thickness, Mean (rs2531971, heterozygotes, M12): 0.002 mm
Change from baseline in carotid intima-media thickness, Mean (rs2531971, homozygotes for major allele, M06): 0.008 mm
Change from baseline in carotid intima-media thickness, Mean (rs2531971, homozygotes for major allele, M12): −0.002 mm
Change from baseline in carotid intima-media thickness, Mean (rs2531971, homozygotes for minor allele, M06): −0.010 mm
Change from baseline in carotid intima-media thickness, Mean (rs2531971, homozygotes for minor allele, M12): −0.016 mm
Change from baseline in carotid intima-media thickness, Mean (rs3730119, heterozygotes, M06): −0.002 mm
Change from baseline in carotid intima-media thickness, Mean (rs3730119, heterozygotes, M12): 0.004 mm
Change from baseline in carotid intima-media thickness, Mean (rs3730119, homozygotes for minor allele, M06): 0.006 mm
Change from baseline in carotid intima-media thickness, Mean (rs3730119, homozygotes for minor allele, M12): −0.028 mm
Change from baseline in carotid intima-media thickness, Mean (rs4786454, heterozygotes, M06): −0.007 mm
Change from baseline in carotid intima-media thickness, Mean (rs4786454, heterozygotes, M12): −0.005 mm
Change from baseline in carotid intima-media thickness, Mean (rs4786454, homozygotes for minor allele, M06): −0.020 mm
Change from baseline in carotid intima-media thickness, Mean (rs4786454, homozygotes for minor allele, M12): −0.049 mm
Change from baseline in carotid intima-media thickness, Mean (rs8049452, heterozygotes, M06): −0.002 mm
Change from baseline in carotid intima-media thickness, Mean (rs8049452, heterozygotes, M12): 0.003 mm
Change from baseline in carotid intima-media thickness, Mean (rs8049452, homozygotes for major allele, M06): −0.008 mm
Change from baseline in carotid intima-media thickness, Mean (rs8049452, homozygotes for major allele, M12): −0.013 mm
Change from baseline in carotid intima-media thickness, Mean (rs8049452, homozygotes for minor allele, M06): 0.020 mm
Change from baseline in carotid intima-media thickness, Mean (rs8049452, homozygotes for minor allele, M12): 0.006 mm
Change from baseline in carotid intima-media thickness, Mean (rs8061182, heterozygotes, M06): 0.000 mm
Change from baseline in carotid intima-media thickness, Mean (rs8061182, heterozygotes, M12): 0.007 mm
Change from baseline in carotid intima-media thickness, Mean (rs8061182, homozygotes for minor allele, M06): 0.016 mm
